# Reference: patent US20240197761A1, “FUCOSYLATION AND IMMUNE MODULATION IN CANCER” (H. LEE MOFFITT CANCER CENTER AND RESEARCH INSTITUTE, INC., priority 2021, published 2024)
# Assays:
# [1] = test system: mouse bone marrow-derived myeloid progenitors; experiment: Myeloid phenotype profiling (M-MDSC, PMN-MDSC, moDC) of bone marrow-derived myeloid progenitors; format: cell-based; settings: ± GM/G-CSF, average values from 12 mice
# Method: Next, we investigated the effect of L-fuc on NO production of bone marrow derived MDSCs (FIGS. 8A and 8B). We observed that L-fuc abrogated NO production in all cases. […] We also wanted to look at how L-fuc treatment effected the expression of immunosuppression genes (FIG. 9). We assessed the expression of key MDSC biology-related genes at 24 or 72 hours after in initial L-fuc treatment of the cells. Generally, we observed reductions in ARGI, PARP, and CHOP expression. In contrast we observed upregulation of STAT1. To further assess how L-fuc/fucosylation affects myeloid phenotype, we modulated fucosylation using DMSO (control), 2-fluoro-fucose (2FIF, fucosylation inhibitor), or L-fuc in mouse bone marrow-derived myeloid progenitors treated ±GM/G-CSF (FIG. 10). We profiled changes In M-MDSC vs. PMN-IMDSC, as well as moDC, as we observed immunostimulatory activity. […] Shown are the average values irom 12 mice. We also observed that L-fucose alters TLR profiles of dendritic cells (FIG. 11).
# SW1 tumors = experiment: Control vs. L-fucose ± FTY720 model: tumor growth and flow cytometric profiling of tumors and lymph nodes (Table 1); format: in vivo, C3H/HeN mice
# Method: FIGS. 15A-15E Lymph node egress is necessary for L-fucose-triggered tumor suppression; L-fucose increases intratumoral CD4+T stem and central memory cells. (a) Immune subpopulations markers use to profile by flow cytometry. (b) Volumetric growth curves for SW1 tumors in C3H/HeN mice fed without (Ctl) or with L-fucose (LF) and treated with FTY720 (Ctl mice administered FTY720: (FTY); LF-supplemented mice administered FTY720: (L+F)). FTY720 was administered at 20 μg per mouse every 2 days starting on Day 12, just prior to the initiation of LF (c) Pie charts showing ratios of intratumoral or lymph node-resident CD4+ or CD8+T cell subpopulations, as well as DC subtypes from mice at Day 14, 28, and 42 (each pie chart represents 4-5 mice). Assessment of cytotoxic CD4+ T cell populations (CRTAM+) and cytotoxic CD8+ T cell populations (GrzB+) from tumors at Day 28 (d) and Day 42 (e). The tumor growth curves are means±SEM from ≥7 mice per group. *=p<0.05.
# Tumors of SW1 or SM1 melanoma cells from […] or C57BL/6 mice, respectively) were digested using 1× tumor digest buffer (0.5 mg/mL Collagenase I, 0.5 mg/mL Collagenase IV, 0.25 mg/mL Hyalyronidase V, 0.1 mg/mL DNAse I in HBSS (Millipore Sigma (St. Louis, MO)). Tumors were homogenized using the Miltenyi MACs dissociator. Red blood cells were lysed using ACK lysis buffer (Life Technologies, (Grand Island, NY)). Tumor homogenate cells were counted using a standard hemocytometer.
# Total TILs were gated first to single cells (based on forward scatter height vs width, followed by side scatter height vs. width). Live cells were gated from the Zombie negative population from the population above. TILs were gated based on splenocyte size from a control spleen. Individual immune subpopulations were sub-gated from the total TIL population using the following staining criteria: CD3+ for CD3+ T cells; CD3+/CD4+/CD8− for CD4+T cells; CD3+/CD4−/CD8+ for CD8+ T cells, CD11c+/CD11b+ for DCs; either NK1.1 (for C57/BL6 mice) or DX5 (for C3H/HeJ) for NK cells; CD11b+/GR1+ for MDSC-like cells; and F4/80+ for macrophages. Single-cell suspensions from tumor and spleen tissue were stained with Live/Dead Zombie NIR (Biolegend, (San Diego, CA)) at 1:1,000 in PBS for 20 min. Cell suspensions were spun down and stained with the following with antibodies at 0.5 μg/ml per antibody: APC anti-mouse CD3, Pacific Blue anti-mouse CD4, BV785 anti-mouse CD8, PerCP anti-mouse CD25, FITC anti-mouse F4/80, PeCy7 anti-mouse CD11c, PE anti-mouse NK1.1 or PE anti-mouse DX5, and PerCP-Cy5.5 anti-mouse CD11 b. After staining, the cells were washed and fixed (2% formaldehyde), followed by another wash and flow cytometric analysis. The compensation controls were prepared using 0.5 μg/mL of each antibody with UltraComp eBeads, (ThermoFisher Scientific (Waltham, MA)). All samples were subject to flow cytometric profiling using a LSR Flow Cytometer (BD Biosciences (San Jose, CA)) and analysis as indicated using FlowJo software (BD Biosciences (San Jose, CA)).
# SW1 or SM1 mouse melanoma cells were injected into syngeneic C3H/HeN (or NSG) female or C57BL/6 male mice, respectively. Cells were injected as follows: parental SW1 cells for FIG. 13A; parental SM1 cells for FIG. 13E; SW1 cells stably expressing either empty vector (EV) or mouse fucose kinase (mFuk) for FIG. 1L; and parental SW1 cells for FIG. 13M. FTY720 was administered at 20 μg every 2 days starting on Day 12, just prior to the initiation of LF, until endpoint.
structure (smiles),measurement,setting,value
C[C@H](O)[C@@H](O)[C@@H](O)[C@H](O)C=O [L-fucose],"myeloid phenotype (M-MDSC vs. PMN-MDSC, moDC)",[1],"enrichment of a monocytic phenotype, including increased moDCs"
same,cytotoxic CD4+T cells (CRTAM+),SW1 tumors; Day 28,transiently but significantly increased
same,"CD4 central memory, average # of cells","SW1 tumors; Day 28, lymph nodes",2289.20 per 10^6 cells of total tumor
same,"CD4 effector memory, average # of cells","SW1 tumors; Day 28, lymph nodes",445.15 per 10^6 cells of total tumor
same,"CD4 naïve, average # of cells","SW1 tumors; Day 28, lymph nodes",9286.89 per 10^6 cells of total tumor
same,"CD4 stem central memory, average # of cells","SW1 tumors; Day 28, lymph nodes",53601.81 per 10^6 cells of total tumor
same,"CD8 central memory, average # of cells","SW1 tumors; Day 28, lymph nodes",295.92 per 10^6 cells of total tumor
same,"CD8 effector memory, average # of cells","SW1 tumors; Day 28, lymph nodes",888.80 per 10^6 cells of total tumor
same,"CD8 naïve, average # of cells","SW1 tumors; Day 28, lymph nodes",18072.26 per 10^6 cells of total tumor
same,"CD8 stem central memory, average # of cells","SW1 tumors; Day 28, lymph nodes",980.96 per 10^6 cells of total tumor
same,"cDC1, average # of cells","SW1 tumors; Day 28, lymph nodes",359.10 per 10^6 cells of total tumor
same,"cDC2, average # of cells","SW1 tumors; Day 28, lymph nodes",743.69 per 10^6 cells of total tumor
same,"moDC, average # of cells","SW1 tumors; Day 28, lymph nodes",37.66 per 10^6 cells of total tumor
same,"CD4 central memory, average # of cells","SW1 tumors; Day 28, tumors",6.04 per 10^6 cells of total tumor
same,"CD4 effector memory, average # of cells","SW1 tumors; Day 28, tumors",568.19 per 10^6 cells of total tumor
same,"CD4 naïve, average # of cells","SW1 tumors; Day 28, tumors",30.44 per 10^6 cells of total tumor
same,"CD4 stem central memory, average # of cells","SW1 tumors; Day 28, tumors",5.59 per 10^6 cells of total tumor
same,"CD8 central memory, average # of cells","SW1 tumors; Day 28, tumors",1.24 per 10^6 cells of total tumor
same,"CD8 effector memory, average # of cells","SW1 tumors; Day 28, tumors",108.29 per 10^6 cells of total tumor
same,"CD8 naïve, average # of cells","SW1 tumors; Day 28, tumors",34.60 per 10^6 cells of total tumor
same,"CD8 stem central memory, average # of cells","SW1 tumors; Day 28, tumors",0.00 per 10^6 cells of total tumor
same,"cDC1, average # of cells","SW1 tumors; Day 28, tumors",2301.44 per 10^6 cells of total tumor
same,"cDC2, average # of cells","SW1 tumors; Day 28, tumors",10732.04 per 10^6 cells of total tumor
same,"moDC, average # of cells","SW1 tumors; Day 28, tumors",20903.90 per 10^6 cells of total tumor
same,"CD4 central memory, average # of cells","SW1 tumors; Day 42, lymph nodes",1741.12 per 10^6 cells of total tumor
same,"CD4 effector memory, average # of cells","SW1 tumors; Day 42, lymph nodes",5032.79 per 10^6 cells of total tumor
same,"CD4 naïve, average # of cells","SW1 tumors; Day 42, lymph nodes",105779.76 per 10^6 cells of total tumor
same,"CD4 stem central memory, average # of cells","SW1 tumors; Day 42, lymph nodes",1587.46 per 10^6 cells of total tumor
same,"CD8 central memory, average # of cells","SW1 tumors; Day 42, lymph nodes",1741.12 per 10^6 cells of total tumor
same,"CD8 effector memory, average # of cells","SW1 tumors; Day 42, lymph nodes",5032.79 per 10^6 cells of total tumor
same,"CD8 naïve, average # of cells","SW1 tumors; Day 42, lymph nodes",105779.76 per 10^6 cells of total tumor
same,"CD8 stem central memory, average # of cells","SW1 tumors; Day 42, lymph nodes",1587.46 per 10^6 cells of total tumor
same,"cDC1, average # of cells","SW1 tumors; Day 42, lymph nodes",2141.34 per 10^6 cells of total tumor
same,"cDC2, average # of cells","SW1 tumors; Day 42, lymph nodes",4375.69 per 10^6 cells of total tumor
same,"moDC, average # of cells","SW1 tumors; Day 42, lymph nodes",1201.44 per 10^6 cells of total tumor
same,"CD4 central memory, average # of cells","SW1 tumors; Day 42, tumors",38.18 per 10^6 cells of total tumor
same,"CD4 effector memory, average # of cells","SW1 tumors; Day 42, tumors",111.09 per 10^6 cells of total tumor
same,"CD4 naïve, average # of cells","SW1 tumors; Day 42, tumors",82.01 per 10^6 cells of total tumor
same,"CD4 stem central memory, average # of cells","SW1 tumors; Day 42, tumors",16.67 per 10^6 cells of total tumor
same,"CD8 central memory, average # of cells","SW1 tumors; Day 42, tumors",13.46 per 10^6 cells of total tumor
same,"CD8 effector memory, average # of cells","SW1 tumors; Day 42, tumors",246.44 per 10^6 cells of total tumor
same,"CD8 naïve, average # of cells","SW1 tumors; Day 42, tumors",109.29 per 10^6 cells of total tumor
same,"CD8 stem central memory, average # of cells","SW1 tumors; Day 42, tumors",0.00 per 10^6 cells of total tumor
same,"cDC1, average # of cells","SW1 tumors; Day 42, tumors",648.96 per 10^6 cells of total tumor
same,"cDC2, average # of cells","SW1 tumors; Day 42, tumors",78.44 per 10^6 cells of total tumor
same,"moDC, average # of cells","SW1 tumors; Day 42, tumors",169.08 per 10^6 cells of total tumor
same,intratumoral CD4+T central and effector memory subpopulations,SW1 tumors; FIG. 15c,increases
same,intratumoral monocyte-derived DCs (moDCs),SW1 tumors; FIG. 15c,significantly increased
same,lymph node cDC2s,SW1 tumors; FIG. 15c,significantly increased
same,L-fuc-triggered tumor suppression,SW1 tumors; with FTY720 (inhibition of lymph node egress),completely abrogated
